Data on 29 compounds can be found in patent publication US20040053966A1, “Chemical derivatives and their application as antitelomerase agent” (Aventis Pharms S.A., priority 1999, published 2004).

Assay [1] relates to human telomerase (HL60 cell extract). Nature of the assay: Antitelomerase activity, TRAP (extension of oligonucleotide TS and PCR amplification). Conditions: telomerase extract from HL60 cells. The assay is classed as biochemical.
Assay [2] concerns G-quadruplex of oligonucleotide GGGTTAGGGTTAGGGTTAGGG (3.5 repeats of the human telomeric motif). The assay is described as follows: G-quadruplex stabilizing activity, fluorescence Tm (FAM+DABCYL oligonucleotide). Conditions: test product 1 μM, oligonucleotide 0.2 μM, 0.1 M LiCl, 10 mM cacodylate pH 7.6; reference without product 44° C. The assay is classed as binding. The source says:
The G-quadruplex stabilizing activity may be determined by a method using the formation of a complex with fluorescein of which the experimental protocol is described below. Oligonucleotides […] The oligonucleotide FAM+DABCYL carries the catalogue reference OL-0371-0802. It has the sequence: […] The fluorescein is attached to the 5' end, the DABCYL to the 3' end, by the chemical arms described by Eurogentec. The concentration of the samples is checked by spectrophotometry, recording the absorbance spectrum between 220 and 700 nm and using the molar extinction coefficient provided by the supplier. Buffers All the experiments were carried out in a 10 mM sodium cacodylate buffer pH 7.6 containing 0.1 M lithium chloride (or sodium chloride). The absence of fluorescent contamination in the buffer was checked beforehand. The fluorescent oligonucleotide is added at the final concentration of 0.2 μM. Study of Fluorescence All the measurements of fluorescence were carried out on a Spex Fluorolog DMlB apparatus, using an excitation line width of 1.8 nm and an emission line width of 4.5 nm. The samples are placed in a microquartz cuvette of 0.2×1 cm. The temperature of the sample is controlled by an external water bath. The oligonucleotide alone was analysed at 20, 30, 40, 50, 60, 70 and 80° C. The emission spectra are recorded using an excitation wavelength of 470 nm. The excitation spectra are recorded using either 515 nm or 588 nm as emission wavelength. The spectra are corrected for the response of the instrument by reference curves. A high extinction (80-90%) of the fluorescence of fluorescein at room temperature is observed, in agreement with an intramolecular folding of the oligonucleotide at 20° C. in the form of a G-quadruplex, which induces juxtaposition of its [NT] ends which are respectively linked to fluorescein and to DABCYL. This juxtaposition causes an already-described phenomenon of extinction of fluorescence which is used for “molecular beacons”. Fluorescence Tm: […] The samples are then allowed to incubate for at least 1 hour at 20° C. before each measurement. The use of longer incubation times (up to 24 hours) has no influence on the result obtained. Each experiment allows the measurement of only one sample. The latter is first incubated at an initial temperature of 20° C., heated to 80° C. over 38 minutes, left for 5 minutes at 80° C. and then cooled to 20° C. over 62 minutes. During this time, the fluorescence is measured simultaneously at two emission wavelengths (515 nm and 588 nm) using 470 nm as excitation wavelength. A measurement is carried out every 30 seconds. The temperature of the water bath is recorded in parallel, and the fluorescence profile as a function of the temperature is reconstituted from these values. The fluorescence profiles are then normalized between 20° C. and 80° C., and the temperature for which the intensity of emission at 515 nm is the mean of those at high and low temperature is called Tm. Under these conditions, the Tm of the reference sample without addition of product is 44° C. in a lithium chloride buffer. This temperature is increased to more than 55° C. in a sodium chloride buffer. The addition of a G-quadruplex-stabilizing compound induces an increase in the Tm. This increase is judged to be significant if it is greater than […].

For assay [3], the system named is A549 cells. Nature of the assay: Cytotoxic activity on human tumour line A549 (neutral red). Conditions: Homo sapiens, A549, 96 h, 96 hours incubation, read-out: Cytotox. A549 IC50. Format: cell-based. Here is the method:
The Cytotoxic Biological Activity on Human Tumour Lines is Determined According to the Following Experimental Protocol:
The cells at the exponential growth phase are trypsinized, washed in 1× PBS and are inoculated in 96-well microplates (Costar) in an amount of 4×10^4 cells/ml for A549 and of 1.5×10^4 cells/ml (0.2 ml/well) and then incubated for 96 hours in the presence of variable concentrations of product to be studied (10, 1, 0.1 and 0.01 μg/ml, each point in quadruplicate). 16 hours before the end of the incubation, 0.02% final of neutral red is added to each well. At the end of the incubation, the cells are washed with 1× PBS and lysed with 1% sodium lauryl sulphate. The cellular incorporation of the dye, which reflects cellular growth, is evaluated by spectrophotometry at a wavelength of 540 nm for each sample with the aid of a Dynatech MR5000 reading apparatus.
(compound value−blank value/cell control value−blank value)×100.

pIC50: −log10 of the molar value. Structures can show the parent of a compound that is named as a salt.

One may read the pIC50 as the negative decadic logarithm of the IC50, by convention in mol/L. `CSc1nc(Nc2ccc3nc(C)cc(N)c3c2)nc(Nc2ccnc3ccccc23)n1` [Example 18-8] had a pIC50 in assay [1] of 5.47. The “G4 Tm” value in assay [2] worked out at 49 °C.

In the case of `CSc1nc(Nc2ccc(C#N)cc2)nc(Nc2ccc3nc(C)cc(N)c3c2)n1` [Example 18-7], the negative logarithm of the IC50 (pIC50) in assay [3] is 5.10; in assay [1], 5.48. Also, the “G4 Tm” value in assay [2] came to 51 °C.

Consider `CSc1nc(Nc2ccc3c(c2)c(=N)cc(C)n3C)nc(Nc2ccc3c(c2)c(=N)cc(C)n3C)n1` [Example 17-2], for which the results for the negative-log IC50 (pIC50) in assay [3] and in assay [1] were 5.21 and 6.02, respectively.

`Cc1cc(N)c2cc(NC(=O)Nc3ccc4nc(C)cc(N)c4c3)ccc2n1` [Example 13, N,N′-(4-amino-6-quinaldinyl)urea dihydrochloride]: in assay [1], the pIC50 is 6.14.

Take `COc1ccc2nccc(Nc3nc(Nc4ccc5nc(C)cc(N)c5c4)nc(SC)n3)c2c1` [Example 18-9]: the pIC50 was 5.02 in assay [3] and 5.47 in assay [1]. Besides, in assay [2], the “G4 Tm” value stood at 51 °C.

Turning to `N=C(N)c1ccc(Nc2nc(N)nc(Nc3ccc(C(=N)N)cc3)n2)cc1` [Example 9, 2-Amino-bis-4,6-(p-amidinoanilino)triazine trihydrochloride], the results for the pIC50 in assay [3] and in assay [1] were 6.28 and 6.13, respectively.

With `CCn1c2ccccc2c2cc(Nc3nc(Nc4ccc5nc(C)cc(N)c5c4)nc(SC)n3)ccc21` [Example 18-11], the pIC50 in assay [3] was 5.89; in assay [1], 5.48. Further, the “G4 Tm” value in assay [2] stood at 48 °C.

Take `COc1cc(C)nc2ccc(Nc3nc(Nc4ccc5nc(C)cc(OC)c5c4)nc(SC)n3)cc12` [Example 17-3]: the figures for the pIC50 in assay [3] and in assay [1] were 5.49 and 5.41, respectively.

`C[n+]1cccc2cc(Nc3nc(N)nc(Nc4ccc5c(ccc[n+]5C)c4)n3)ccc21` [Example 5, 2-amino-bis-4,6-[(1′-methyl-6′-quinolinio)amino]triazine dichloride]: the pIC50 in assay [1] is 6.89. Besides, the “FLUORESCENCE Tm” value in assay [2] is listed as 57° ° C.

In the case of `CC[n+]1c(C)cc(N)c2cc(Nc3nc(N)nc(Nc4ccc5c(c4)c(N)cc(C)[n+]5CC)n3)ccc21` [Example 2, 2-amino-bis-4,6-[(1′-ethyl-4′-amino-6′-quinaldinio)amino]triazine dichloride], the pIC50 is 5.33 in assay [3] and 7.25 in assay [1]. For the same compound, the “FLUORESCENCE Tm” value in assay [2] was 48° ° C.

Turning to `CSc1nc(Nc2ccc3nc(C)cc(C)c3c2)nc(Nc2ccc3nc(C)cc(N)c3c2)n1` [Example 18-4], the pIC50 in assay [1] was 5.66. Also, the “G4 Tm” value in assay [2] was determined as 50 °C.

Consider `CCN(CC)c1nc(Nc2ccc3ncccc3c2)nc(Nc2ccc3nc(C)cc(N)c3c2)n1` [Example 19-1], for which the pIC50 was 5.82 in assay [3] and 6.00 in assay [1]. Moreover, the “G4 Tm” value in assay [2] worked out at 58 °C.

On to `Cc1cc(N)c2cc(Nc3nc(N)nc(Nc4ccc5nc(C)cc(N)c5c4)n3)ccc2n1` [Example 8, 2-amino-bis-4,6-[(4′-amino-6′-quinaldinyl)amino]triazine trihydrochloride], for which the pIC50 is 5.04 in assay [3] and 7.29 in assay [1].

As for `C[n+]1ccc(NCCCCCNc2cc[n+](C)c3cc(Cl)ccc23)c2ccc(Cl)cc21` [Example 14, N^1,N^5-bis (7-chloro-1-methyl4-quinolinio)pentane-1,5-diamine diiodide], the pIC50 in assay [3] is 5.19.

Regarding `CNc1nc(Nc2ccc3nc(C)cc(NC)c3c2)nc(Nc2ccc3nc(C)cc(NC)c3c2)n1` [Example 6, 2-methylamino-bis-4,6-[(4′-methylamino-6′-quinaldinyl)amino]triazine dichloride trihydrochloride], the pIC50 in assay [3] was 5.72; in assay [1], 6.52. Further, in assay [2], the “FLUORESCENCE Tm” value amounted to 44° ° C.

In the case of `CSc1nc(Nc2ccc3nc(C)cc(N)c3c2)nc(Nc2ccc3nc(C)cc(N(C)C)c3c2)n1` [Example 18-3], the pIC50 in assay [3] was 5.00; in assay [1], 6.47. Further, the “G4 Tm” value in assay [2] is 57 °C.

The compound `Cc1cc(N)c2cc(Nc3nc(N)nc(Nc4ccc5c(c4)c(N)cc(C)[n+]5C)n3)ccc2[n+]1C` [Example 1, 2-amino-bis-4,6-[(1′-methyl-4′-amino-6′-quinaldinio)amino]triazine dichloride] showed a pIC50 in assay [1] of 6.60.

Consider `CSc1nc(Nc2ccc3nc(C)ccc3c2)nc(Nc2ccc3nc(C)cc(N)c3c2)n1` [Example 18-13], for which, in assay [1], the pIC50 was 5.47.

For `CSc1nc(Nc2ccc3ncccc3c2)nc(Nc2ccc3nc(C)cc(N)c3c2)n1` [Example 18-5], the pIC50 in assay [1] is 5.47. For the same compound, the “G4 Tm” value in assay [2] was 47 °C.

Regarding `CSc1nc(Nc2ccc3nc(C)cc(N)c3c2)nc(Nc2ccc3nc(C)cc(N)c3c2)n1` [Example 17-1], the results for the pIC50 in assay [3] and in assay [1] were 5.80 and 7.31, respectively. For the same compound, the “G4 Tm” value in assay [2] turned out to be 57 °C.

`COc1cc(C)nc2ccc(Nc3nc(Nc4ccc5nc(C)cc(N)c5c4)nc(SC)n3)cc12` [Example 18-2]: in assay [1], the pIC50 was 5.64. Further, the “G4 Tm” value in assay [2] came out at 49 °C.

Consider `CSc1nc(Nc2ccc3c(c2)c(N)cc(C)[n+]3C)nc(Nc2ccc3c(c2)c(N)cc(C)[n+]3C)n1` [Example 10, 2-methylthio-bis-4,6-[(1′-methyl-4′-amino-6′-quinaldinio)amino]triazine dichloride], for which the pIC50 is 5.44 in assay [3] and 6.62 in assay [1].

`Cc1cc(N(C)C)c2cc(Nc3nc(Cl)nc(Nc4ccc5nc(C)cc(N(C)C)c5c4)n3)ccc2n1` [Example 11, 2-chloro-bis-4,6-[(4′-dimethylamino-6′-quinaldinyl)amino]triazine dihydrochloride dihydrate]: the values for the pIC50 in assay [3] and in assay [1] were 5.29 and 5.52, respectively. For the same compound, in assay [2], the “FLUORESCENCE Tm” value is 57° ° C.

Turning to `Cc1cc(N)c2cc(NC(=N)NC(=N)Nc3ccc4nc(C)cc(N)c4c3)ccc2n1` [Example 16, 1,5-(4′-amino-6′-quinaldinyl)-biguanide trihydrochloride dihydrate], the pIC50 in assay [3] was 5.24. Moreover, the “FLUORESCENCE Tm” value in assay [2] was determined as 52° ° C.

With `CCN(CC)c1nc(Nc2ccncc2)nc(Nc2ccc3nc(C)cc(N)c3c2)n1` [Example 19-2], in assay [1], the pIC50 is 5.60. For the same compound, the “G4 Tm” value in assay [2] is 53 °C.

For the compound `CSc1nc(Nc2ccc3nc(C)cc(N(C)C)c3c2)nc(Nc2ccc3nc(C)cc(N(C)C)c3c2)n1` [Example 12, 2-methylthio-bis-4,6-[(4′-dimethylamino-6′-quinaldinyl)amino]triazine hydrate], in assay [1], the pIC50 was 7.39. The “FLUORESCENCE Tm” value in assay [2] is recorded as 70° ° C.

The compound `CSc1nc(Nc2ccc3nc(C)cc(N)c3c2)nc(N(C)c2ccc3ncccc3c2)n1` [Example 18-1] gave a pIC50 in assay [1] of 5.46. In assay [2], the “G4 Tm” value was found to be 47 °C.

Consider `Cc1cc(N)c2cc(Nc3nc(Nc4ccc5c(c4)c(N)cc(C)[n+]5C)nc(N(C)C)n3)ccc2[n+]1C` [Example 3, 2-dimethylamino-bis-4,6-[(1′-methyl-4′-amino-6′-quinaldinio)amino]triazine dichloride], for which the pIC50 in assay [1] is 6.66. Moreover, the “FLUORESCENCE Tm” value in assay [2] came to 52° ° C.

`CCc1cc(Nc2nc(Nc3ccc4nc(C)cc(N)c4c3)nc(SC)n2)ccn1` [Example 18-12] had a pIC50 in assay [1] of 5.55.
